# pEC50: −log10 of the molar value. Calls of active or inactive are those of the source. The rule behind the calls is not given here.
# Key:
# L929 [1] = assay: Potentiation of recombinant human TNF-alpha-induced cytotoxicity of mouse L929 cells assessed as survivality preincubated for 15 mins before TNFalpha addition measured after 24 hrs by [methyl-3H]thymidine incorporation assay; type: functional, cell-based
# L929 [2] = assay: Potentiation of recombinant human TNF-alpha-induced cytotoxicity of mouse L929 cells assessed as survivality preincubated for 15 mins before TNFalpha addition measured after 24 hrs by crystal violet staining; type: functional, cell-based
# L929 [3] = assay: Inhibition of recombinant human TNF-alpha-induced cytotoxicity of mouse L929 cells assessed as survivality preincubated for 15 mins before TNFalpha addition measured after 24 hrs by crystal violet staining; type: functional, cell-based
# L929 [4] = assay: Inhibition of recombinant human TNF-alpha-induced cytotoxicity of mouse L929 cells assessed as survivality preincubated for 15 mins before TNFalpha addition measured after 24 hrs by [methyl-3H]thymidine incorporation assay; type: functional, cell-based
# L929 [5] = assay: Inhibition of recombinant human TNF-alpha-induced cytotoxicity of mouse L929 cells assessed as survivality treated with drug after 2 hrs of TNFalpha treatment; type: functional, cell-based
# L929 [6] = assay: Potentiation of recombinant human TNF-alpha-induced cytotoxicity of mouse L929 cells assessed as survivality treated with drug after 2 hrs of TNFalpha treatment; type: functional, cell-based
# L929 [7] = assay: Potentiation of recombinant human TNF-alpha-induced cytotoxicity of mouse L929 cells assessed as survivality at 250 uM preincubated for 15 mins before TNFalpha addition measured after 24 hrs by [methyl-3H]thymidine incorporation assay; type: functional
# L929 [8] = assay: Potentiation of recombinant human TNF-alpha-induced cytotoxicity of mouse L929 cells assessed as survivality at 250 uM preincubated for 15 mins before TNFalpha addition measured after 24 hrs by crystal violet staining; type: functional
# L929 [9] = assay: Cytotoxicity against mouse L929 cells at 1 uM preincubated for 15 mins before TNFalpha addition measured after 24 hrs by [methyl-3H]thymidine incorporation assay; type: cell-based; settings: l929, 24 h
# L929 [10] = assay: Cytotoxicity against mouse L929 cells at 1 uM preincubated for 15 mins before TNFalpha addition measured after 24 hrs by crystal violet staining; type: cell-based; settings: l929, 24 h
Structure (SMILES),pEC50 (L929 [3]),pEC50 (L929 [4]),Activity (L929 [5]),Activity (L929 [3]),Activity (L929 [6]),other results
O=c1cc(-c2ccc(O)cc2)oc2cc(O)cc(O)c12,–,–,–,–,–,Activity (L929 [1]): Active; Activity (L929 [2]): Active
O=c1cc(-c2ccccc2)oc2cc(O)cc(O)c12,–,–,–,–,–,Activity (L929 [1]): Active; Activity (L929 [2]): Active
O=C1c2c(O)cc(O)cc2O[C@H](c2ccc(O)c(O)c2)[C@H]1O [(+)-TAXIFOLIN],3.70,3.62,–,–,–,–
Oc1cc(O)c2c(c1)O[C@H](c1ccc(O)c(O)c1)[C@H](O)C2 [(-)-EPICATECHIN],3.52,3.46,–,–,–,–
O=C1C[C@@H](c2ccc(O)c(O)c2)Oc2cc(O)cc(O)c21 [ERIODICTYOL],5.40,5.22,–,–,–,–
O=c1c(O)c(-c2ccccc2)oc2cc(O)cc(O)c12 [GALANGIN],4.40,4.30,Active,Dose-dependent effect,Active,–
COc1ccc(-c2oc3cc(O)cc(O)c3c(=O)c2O)cc1 [KAEMPFERIDE],3.89,3.85,Active,Dose-dependent effect,Active,–
O=c1c(O)c(-c2ccc(O)cc2)oc2cc(O)cc(O)c12 [KAEMPFEROL],4.70,4.60,Active,Dose-dependent effect,Active,–
O=c1cc(-c2ccc(O)c(O)c2)oc2cc(O)cc(O)c12 [LUTEOLIN],< 3.60,< 3.60,–,–,–,–
O=c1c(O)c(-c2ccc(O)cc2O)oc2cc(O)cc(O)c12 [MORIN],3.92,3.94,Active,Dose-dependent effect,Active,–
O=c1c(O)c(-c2cc(O)c(O)c(O)c2)oc2cc(O)cc(O)c12 [MYRICETIN],4.26,4.23,Active,Dose-dependent effect,Active,–
O=C1C[C@@H](c2ccc(O)cc2)Oc2cc(O)cc(O)c21 [NARINGENIN],–,–,–,–,–,Activity (L929 [1]): Active; Activity (L929 [2]): Active; Activity (L929 [7]): 31%; Activity (L929 [8]): 25%
CC(Cc1ccc(O)c(O)c1)C(C)Cc1ccc(O)c(O)c1 (configuration not stated) [NORDIHYDROGUAIARETIC ACID],4.55,4.72,–,–,–,–
O=c1c(O)c(-c2ccc(O)c(O)c2)oc2cc(O)cc(O)c12 [QUERCETIN],4.70,4.59,Active,Dose-dependent effect,Active,–
C[C@@H]1O[C@@H](OC[C@H]2O[C@@H](Oc3c(-c4ccc(O)c(O)c4)oc4cc(O)cc(O)c4c3=O)[C@H](O)[C@@H](O)[C@@H]2O)[C@H](O)[C@H](O)[C@H]1O [RUTIN],3.60,< 3.60,Active,Dose-dependent effect,Active,–
CN[C@@H]1C[C@H]2O[C@@](C)([C@@H]1OC)n1c3ccccc3c3c4c(c5c6ccccc6n2c5c31)C(=O)NC4 [STAUROSPORINE],–,–,–,–,–,Activity (L929 [9]): Toxic; Activity (L929 [1]): Dose-dependent effect; Activity (L929 [2]): Dose-dependent effect; Activity (L929 [10]): Toxic
